Laboratory results from patent US20050048093A1, “Methods and reagents for the control of infestations of parasites” (priority 2001, published 2005).
Where “and” joins values, the source holds several entries; their conditions need not be identical. Equal entries are not always repeated.

How the values were obtained:
Format in all cases: in vivo
Varroa destructor [1] = assay: Inhibition of the reproduction of V. destructor in natural cells; details: Example 2, 10 days in hive
Description: Example 2 was conducted in the same way as Example 1, except for the fact that the V. destructor mite was cultivated on bee larvae in natural cells from a beehive. In this example, too, the effect of 8-heptadecene on the reduction in the mean number of offspring produced by a female V. destructor in cells of natural honeycomb, kept in the hive, was verified.
For verification of the activity of cis-8-C17H34, two groups of natural cells were prepared. In the cells of the first group, referred to as the treated group, 1 μl of acetone containing 100 ng of cis-8-heptadecene was deposited. In the cells of the second group, the control group, 1 μl of the solvent alone, ie acetone, was deposited. The natural cells were cells just capped with honeycomb taken from infested hives and the product was deposited via injection of the solution using a microsyringe through the cell cap. Following treatment, the honeycomb was returned to the hive from which it was taken. After ten days, the honeycombs used for the experiment were brought to the laboratory; both the treated and control cells were opened and inspected. In the infested cells, the mean number of offspring produced by each varroa was counted. The experiment was replicated six times: in total, approximately 140 infested cells were examined for each group.

Varroa destructor [2] = assay: Inhibition of the reproduction of V. destructor in artificial (gelatine) cells; details: for Inhibitory activity in respect of varroa reproduction / Number of offspring per varroa female in the artificial cells treated (Mean) / Number of offspring per varroa female in the artificial cells treated: Example 5; for Inhibitory activity in respect of varroa reproduction: artificial cells, result in words; for Number of offspring per varroa female in the artificial cells treated (Mean) / Number of offspring per varroa female in the artificial cells treated: same procedure as Example 1; for Number of offspring per varroa female in the artificial cells treated (Mean): mean of three replications; for Number of offspring per varroa female in the artificial cells treated: single replications 1-3
Description: In Example 1, a chemical composition is made up of a solution of heptadecene in hexane, with a double bond in position 8 and cis configuration ([…]). The cis-8-heptadecene in a solution of hexane causes a reduction in reproduction, ie a reduction in the number of offspring produced by the Varroa destructor mite, raised in a laboratory environment, on bee larvae in gelatine cells. For verification of the activity of cis-8-C17H34, two groups of gelatine cells were prepared, with a diameter of 6.5 mm. In each of the two cells of the first group, 10 […] 100 ng of cis-8-heptadecene was deposited. This group was defined as the treated group. In the cells of the second group, 10 […] active compound was deposited. This group was defined as the control group. The substances were deposited into each cell using a micropipette. The solvent was left to evaporate and then one varroa and one bee larva from natural, just-capped cells were introduced into each cell in each of the groups. The varroa was thus cultivated on the bee larva, during the metamorphosis of the larva, as happens in nature. Cultivation took place at 35° C. and 75% relative humidity. After ten days Oust before the bee reached its adult state), the cells were opened and inspected by microscope and the offspring produced by each varroa female were counted. The experiment described above was conducted four times; in total, approximately 80 cells were used per group. Following the same procedure used in Example 1, a chemical composition made up of a solution of a heptadecene isomer as in Example 1, in this case the isomer with a double bond in position 6 (cis-6-C17H34), and a second composition containing a solution of cis-8-heptadecene (cis-8-C17H34) were applied.

Varroa destructor [3] = assay: Inhibition of the reproduction of V. destructor via dispensing of cis-8-heptadecene in bee colonies; details: for Number of offspring of V. destructor inside the capped cells of Group B (10 μg) / Number of offspring of V. destructor inside the capped cells of Group A (100 μg): changed weekly
Description: In Example 3, ten nuclei were prepared, ie bee colonies with a reduced number of individuals, in the order of several thousand. Each nucleus was placed in a hive with dimensions smaller than those of a standard hive. These nuclei were divided into three groups—A and B, each with three nuclei, and C, with four nuclei.
Into each hive, a dispensing mechanism comprising a nylon grid, with a 100 μm mesh, square and with a side measurement of 10 cm, supported by a sheet of aluminium, was introduced. Solutions of cis-8-heptadecene in various concentrations in 100 μl of hexane were placed on each of these grids. The solvent was left to evaporate before each test. Group A was treated with 100 μg of cis-8-C17H34 in 100 μl of hexane, Group B with 10 μg of cis-8-C17H34 in […], and Group C with 100 μl of hexane without the addition of cis-8-C17H34 (control grou). The dispensing mchanism was changed in each hive each week; and treatment lasted for three weeks. At the end of the test, the number of V. destructor individuals present on the adult bees and in the brood cells was determined. The brood cells were removed from the hives, opened and inspected. Finally, the V. destructor individuals killed by the treatment were counted. The numbers of offspring of the V. destructor individuals present in the brood cells were calculated, separately for each developmental stage of the bees, and specifically pink-eyed pupae (pp), black-eyed pupae (pd) and pigmented pupae and adult bees (ppd).

Structure (SMILES) | Number of offspring per varroa female in the natural cells treated with cis-8-heptadecene (Varroa destructor [1]; 100 ng in 1 μl acetone per natural capped cell, single replications 1-6) | Number of offspring per varroa female in the natural cells treated with cis-8-heptadecene (Mean) (Varroa destructor [1]; 100 ng per natural capped cell, mean of six replications) | Number of offspring per varroa female in the artificial cells treated with cis-8-heptadecene (Mean) (Varroa destructor [2]; Example 1, 100 ng per gelatine cell, 10 days, mean of four replications) | Inhibitory activity in respect of varroa reproduction (Varroa destructor [2]) | Number of offspring per varroa female in the artificial cells treated (Mean) (Varroa destructor [2]) | Number of offspring per varroa female in the artificial cells treated (Varroa destructor [2]; listed as cis-8-C17H34) | Number of offspring of V. destructor inside the capped cells of Group B (10 μg) (Varroa destructor [3]; 10 μg per dispenser, three weeks, PD: black-eyed pupae) | Number of offspring of V. destructor inside the capped cells of Group B (10 μg) (Varroa destructor [3]; 10 μg per dispenser, three weeks, PDD [sic]: pigmented pupae et adults) | Number of offspring of V. destructor inside the capped cells of Group B (10 μg) (Varroa destructor [3]; 10 μg per dispenser, three weeks, PP: pink-eyed pupae) | Percentage distribution of V. destructor in Group B (10 μg): Varroa in the reproductive phase (Varroa destructor [3]; 10 μg per dispenser, three weeks, adult female varroa in brood cells) [Percentage] | Percentage distribution of V. destructor in Group B (10 μg): Varroa in the phoretic phase (Varroa destructor [3]; 10 μg per dispenser, three weeks, adult female varroa on adult bees) [Percentage] | Number of offspring of V. destructor inside the capped cells of Group A (100 μg) (Varroa destructor [3]; 100 μg per dispenser, three weeks, PD: black-eyed pupae) | Number of offspring of V. destructor inside the capped cells of Group A (100 μg) (Varroa destructor [3]; 100 μg per dispenser, three weeks, PDD [sic]: pigmented pupae et adults) | Number of offspring of V. destructor inside the capped cells of Group A (100 μg) (Varroa destructor [3]; 100 μg per dispenser, three weeks, PP: pink-eyed pupae) | Percentage distribution of V. destructor in Group A (100 μg): Varroa in the reproductive phase (Varroa destructor [3]; 100 μg per dispenser, three weeks, adult female varroa in brood cells) [Percentage] | Percentage distribution of V. destructor in Group A (100 μg): Varroa in the phoretic phase (Varroa destructor [3]; 100 μg per dispenser, three weeks, adult female varroa on adult bees) [Percentage] | Reproduction of V. destructor in the cells of the hives (Varroa destructor [3]; Groups A (100 μg) and B (10 μg), as from the black-eyed pupa stage (pd), result in words) | Number of offspring per varroa female in the artificial cells treated (Varroa destructor [2]; listed as cis-6-C17H34)
CCCCCCC/C=C\CCCCCCCC [cis-8-heptadecene] | 3.2 and 2.5 and 3.6 and 3.1 and 3.7 | 3.2 | 1.7 | demonstrated inhibitory activity | 1.9 | 2.0 and 1.5 | 2.65 | 3.20 | 2 | 60 | 40 | 2.63 | 3.29 | 2 | 50 | 50 | reduction, albeit modest | 
CCCCC/C=C\CCCCCCCCCC [cis-6-heptadecene] |  |  |  | demonstrated inhibitory activity | 2.1 |  |  |  |  |  |  |  |  |  |  |  |  | 2.4 and 2.3 and 1.7
